# Data taken from patent US20040229241A1, “Cloned mammalian polyamine oxidase” (priority 2001, published 2004).
# Assays:
# PAOh1/SMO = PAOh1/SMO activity in lysates of NCI A549 cells after analogue treatment; assay type: cell-based, human; settings: for induction of PAOh1/SMO activity: NCI A549, 24 h exposure to 10 μM of each analogue; for substrate of the inducible PAOh1/SMO activity: lysates of NCI A549 treated with 10 μM BENSpm or CPENSpm 24 h, 250 μM substrate
# Protocol: (§1) Cell Culture and Analysis of Growth Inhibition of Human Lung Cancer Cell Lines The non-small-cell cancer lines NCI A549 (adenocarcinoma), NCI H157 (squamous), NCI H727 (carcinoid), NCI H125 (adenocarcinoma) and U1752 (squamous), and the small-cell lung carcinoma lines NCI H82 and NCI H889 were cultured as we have previously described. Cells were treated for the times and with the concentrations of specific agents as indicated in the Results. For cell growth analysis in the presence of the PAOh1/SMO inhibitor MDL 72,527, the MTS dye reduction assay CellTiter 96 system from Promega was used according to the supplier's protocol. In these experiments, NCI A549 cells were seeded at 5×10^3 cells/well in a 96-well microtiter plate and treated for 96 h with 10 μM of the indicated analogue in the presence or absence of 250 μM MDL 72,527.
# (§2) Total cellular RNA was extracted from the lung cancer cell lines using Trizol reagent (Invitrogen) according to the manufacturer's protocol. For Northern blotting, total RNA (20 lg) was separated on a denaturing 1.5% agarose gel containing 6% formaldehyde and transferred to Zetaprobe membrane (Bio-Rad). Random primer- labeled PAOh1 cDNA was used as probe to estimate PAOh1/SMO expression. Blots were stripped and reprobed with an 18S ribosomal cDNA to provide a loading control. Analysis of polyamine content, SSAT and PAOh1/SMO activity. Intracellular polyamine concentrations were determined using the precolumn dansylation labeling, reverse-phase high-pressure liquid chromatography method as described by Kabra et al. using 1,7-diaminoheptane as an internal standard. Polyamine concentrations are reported as nanomoles per milligram protein for each sample, where lysate protein content was measured by the method of Bradford. SSAT activity of cellular extracts was measured as previously described. […] The PAOh1/SMO assays were performed in the presence of 1.0 mM pargyline and 0.1 mM semicarbizide as inhibitors of monoamine oxidase (MAO) and diamine oxidase (DAO), respectively.
# [1] = biological target: T1, purified recombinant human PAOh1/SMO (Homo sapiens, UniProt Q9NWM0); experiment: Oxidase activity of purified recombinant PAOh1/SMO, luminol chemiluminescence; assay type: biochemical; settings: for ability to serve as substrate (oxidation by purified PAOh1/SMO): 250 μM of compound; for inhibition of PAOh1/SMO activity, increasing concentrations: 250 μM spermine
# T1 construct: A 1702 bp fragment of the PAOh1cDNA was produced by PCR; His tag (pET15b) (N); made in house; host or cells: Escherichia coli BL21(DE3)
# Protocol: Expression and Purification of PAOh1/SMO. The pET15b/PAOh1/SMO plasmid was used to transform the BL21(DE3) strain of Escherichia coli (Novagen) and transformed cells were selected on LB agar with 50 μg/ml ampicillin. The expression of PAOh1/SMO protein was induced in LB medium by the addition of 1 mM IPTG for 3 h at 37 ° C. Cell lysates were prepared under denaturing conditions with 8M urea and PAOh1/SMO protein was purified from the lysate by Ni-NTA resin according to the manufacturer's protocol (Qiagen, Valencia, Calif.). The resulting denatured protein was renatured in buffers containing decreasing concentrations of urea (5M urea, 4 h; 2.5M urea, 4 h; 1M urea, 12 h; and 0M urea, 12 h) and 50 mM Tris-HCl, pH 7.5, 250 mM NaCl, 0.1 mM EDTA, 1 mM DTT, and 0.2 μM flavin adenine dinucleotide (FAD).
# Determination of PAO enzyme activity. PAO activity of the purified PAOh1/SMO was assayed using a modi.cation of the chemiluminesence analysis reported by Fernandez et al. and Rogers, et al.. Briefly, luminol-dependent chemiluminescence was determined using a Monolight 3010 luminometer with two reagent injectors. Luminol was prepared as a 100 mM stock solution in DMSO and diluted to 100 μM with H2O, immediately prior to use. Purified PAOh1/SMO was assayed in a 100 mM glycine buffer, pH 8.0, 5 ηmol luminol, 20 μg horseradish peroxidase, and the polyamine substrate as indicated. All reagents with the exception of the polyamine substrate were combined and incubated for 2 min at 37 ° C., then the tube was transferred to the luminometer, substrate was added, and the resulting chemiluminescence was integrated over 20 s. The integral values are calibrated against standards containing known concentrations of H2O2 and the activities are expressed as pmols H2O2/mg protein/min. Where indicated, inhibitors were added at the specified concentrations prior to the addition of substrate. Km and Vmax values for the purified enzyme with the indicated substrate were estimated using Lineweaver-Burk transformation of the Michaelis-Menten kinetic equation.
# NCI A549 cells [2] = experiment: Intracellular polyamine and analogue content of NCI A549 cells (HPLC); assay type: cell-based, human; settings: NCI A549, 10 μM, 24 h
# Text: as §2
# SSAT = SSAT activity of NCI A549 cellular extracts; assay type: cell-based, human; settings: NCI A549, 10 μM, 24 h; untreated 5 ± 0.1
# Text: as §2
# NCI A549 cells [3] = experiment: MTS cell growth analysis of NCI A549 cells with or without MDL 72,527; assay type: cell-based, human
# Protocol: as §1
# human PAOh1 = biological target: T2, human PAOh1 (Homo sapiens, UniProt Q9NWM0); experiment: PAO activity of in vitro TnT (wheat germ) produced PAOh1, fluorescent H2O2 assay; assay type: biochemical; settings: 0.25 mM inhibitor, 250 μM spermine as substrate
# T2 construct: made in house; host or cells: TnT-coupled wheat germ extract (Promega), template pPAOh1 (pcDNA3.1)
# Protocol: In Vitro Transcription and Translation. In vitro transcription and translation reactions were performed with the TnT-coupled wheat germ extract system. Parallel reactions were prepared by adding an unlabeled amino acid mixture to one reaction and a [^35S]methionine containing amino acid mixture to the other, according to the supplied protocol. Vector pcDNA3.1 and pPAOh1 were linearized by SalI restriction and served as the templates. The labeled translation reactions products were separated by 10% SDS-PAGE, and radioactivity on the labeled PAO band was determined by Phosphor image analysis using Image Quant software (Molecular Dynamics, Sunnyvale, Calif.).
# Determination of PAO Enzyme Activity. The cultured H157 cells with or without treatment of 10 μM N^1, N″-bis(ethyl)norspermine (BENSpm) were homogenized with a Dounce tissue homogenizer in ice-cold 0.083 M sodium borate buffer (pH 9.0). […] The enzyme activity was stopped by the addition of 2.0 ml of 0.1 M NaOH solution. The fluorescence intensity was measured with excitation at 323 nm and emission at 426 nm. […] Protein content of the cellular homogenate was determined using the Bio-Rad protein assay kit (Bio-Rad). […] For determination of PAO activity in the product of the unlabeled TnT reaction, 10 μl of TnT reaction were used in the place of the homogenate. […]
# PAOh4 = biological target: T3, PAOh4 (Homo sapiens, UniProt Q9NWM0); experiment: Kinetics of TnT-produced PAOh4 isoenzyme; assay type: biochemical; settings: named compound as substrate
# T3 construct: For PAO-isoform 4, the cDNA is 1825 bp long; the open reading frame encodes 532 amino acids; made in house; host or cells: Wheat Germ Extract-TnT coupled system (Promega), template pPAOh4 (pcDNA3.1), cDNA from HEK-293 mRNA
# Protocol: For PAO splice variant protein analysis, each cDNA construct, as well as the pcDNA3.1 empty vector, was linearized using NdeI. In vitro transcription and translation was subsequently performed using the Wheat Germ Extract-TnT coupled system from Promega (Madison, Wis., U.S.A.) according to the manufacturer's protocol. Reactions were performed in parallel, with one aliquot containing [^35S]methionine in the amino acid mixture for subsequent separation and quantification by SDS-PAGE. […] After drying, bands were visualized and quantified using phosphorimage analysis with Image Quant software from Molecular Dynamics (Sunnyvale, Calif., U.S.A.).
# TnT products from the reactions using unlabelled substrates were used for PAO enzyme analysis by the method of Suzuki et al. Specifically, 10 μl of the TnT reaction mixture was used for each 600 μl of PAO assay sample (in duplicate, and in the presence of monoamine and diamine oxidase inhibitors, as previously described). Background oxidase activity in the Wheat Germ Extract-TnT reactions was determined for each substrate using the empty pcDNA3.1 vector. These values (always<0.05 pmol/min) were subtracted from the oxidase activity measured in TnT lysates produced from vectors containing the individual splice variants. To ensure linearity of the reaction (thereby determining the optimal incubation time after substrate addition), time courses were performed for each potential isoenzyme in the presence of 1 mM Spm (Sigma, St. Louis, Mo., U.S.A.).
# Apparent kinetics were examined for each isoenzyme using TnT reaction products as described above with increasing concentrations of Spm, Spd (Sigma) or N^1-acetylspermine (N^1-AcSpm; Fluka). Apparent Km and Vmax values were determined using the Lineweaver-Burk transformation of the Michaelis-Menten equation. Values were adjusted for TnT reaction efficiency by SDS-PAGE quantfication of a [^35S]methionine-labelled aliquot of the TnT reaction mixture normalized for methionine content.
# [4] = named compound as substrate, Lineweaver-Burk
# T3 sequence (Q9NWM0 1-532 isoform Q9NWM0-4): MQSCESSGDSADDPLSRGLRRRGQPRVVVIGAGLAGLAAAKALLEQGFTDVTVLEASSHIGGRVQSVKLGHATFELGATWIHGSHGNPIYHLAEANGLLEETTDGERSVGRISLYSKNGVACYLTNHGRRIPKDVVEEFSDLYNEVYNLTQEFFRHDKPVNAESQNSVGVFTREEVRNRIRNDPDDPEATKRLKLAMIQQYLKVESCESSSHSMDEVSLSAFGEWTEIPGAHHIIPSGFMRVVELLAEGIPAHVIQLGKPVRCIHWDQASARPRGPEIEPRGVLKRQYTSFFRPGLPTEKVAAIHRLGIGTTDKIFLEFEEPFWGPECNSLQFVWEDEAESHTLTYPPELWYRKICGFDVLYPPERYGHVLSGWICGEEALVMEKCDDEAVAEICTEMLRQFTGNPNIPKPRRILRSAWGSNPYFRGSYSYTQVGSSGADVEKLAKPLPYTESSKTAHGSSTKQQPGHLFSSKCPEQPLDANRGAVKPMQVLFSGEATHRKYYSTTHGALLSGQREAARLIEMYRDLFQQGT
# T1 sequence (Q9NWM0 whole entry, the tested form may be a part): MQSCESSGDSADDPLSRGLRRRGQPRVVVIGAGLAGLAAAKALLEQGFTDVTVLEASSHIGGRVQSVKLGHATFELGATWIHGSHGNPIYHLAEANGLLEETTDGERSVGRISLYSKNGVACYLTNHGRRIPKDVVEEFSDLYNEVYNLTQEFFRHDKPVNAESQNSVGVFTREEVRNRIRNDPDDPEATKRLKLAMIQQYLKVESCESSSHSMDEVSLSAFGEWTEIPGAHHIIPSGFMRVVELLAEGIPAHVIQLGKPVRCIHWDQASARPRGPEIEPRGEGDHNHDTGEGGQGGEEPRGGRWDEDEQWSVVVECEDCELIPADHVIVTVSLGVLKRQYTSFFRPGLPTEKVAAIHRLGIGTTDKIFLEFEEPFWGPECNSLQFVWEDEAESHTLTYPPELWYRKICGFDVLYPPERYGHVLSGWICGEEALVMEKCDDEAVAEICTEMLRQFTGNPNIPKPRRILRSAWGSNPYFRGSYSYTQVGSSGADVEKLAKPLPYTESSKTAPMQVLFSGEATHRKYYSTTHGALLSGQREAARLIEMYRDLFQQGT
# T2 sequence (Q9NWM0 whole entry): as the sequence (Q9NWM0 whole entry, the tested form may be a part) above
Structure (SMILES),"inhibition of PAOh1/SMO activity, increasing concentrations [1]",Km of PAOh4 (PAOh4),induction of PAOh1/SMO activity (PAOh1/SMO),ability to serve as substrate (oxidation by purified PAOh1/SMO) [1],substrate of the inducible PAOh1/SMO activity (PAOh1/SMO),other results
"CCNCCCNCCCNCCCNCC1CC1 [CPENSpm, N^1-ethyl-N^11-(cyclopropyl) methyl-4,8,diazaundecane]",,,significant induction,none of the analogues examined were found to be oxidized,,"Polyamine: Putrescine (NCI A549 cells [2]; untreated 2.1 ± 0.7): <0.05 nmol/mg protein; Polyamine: Spermine (NCI A549 cells [2]; untreated 9.9 ± 1.2): 2.4 ± 0.4 nmol/mg protein; Polyamine: Spermidine (NCI A549 cells [2]; untreated 26.9 ± 1.2): 5.5 ± 0.2 nmol/mg protein; SSAT activity (SSAT): 1190 ± 287.9 pmol N^1-acetylspermidine/mg p; PAOh1/SMO activity (PAOh1/SMO; NCI A549, 10 μM, 24 h, untreated 6,390 ± 2,070): 14,300 ± 3,700 pmol H2O2/mg/h; dose-dependence of PAOh1/SMO activity (PAOh1/SMO; NCI A549, increasing concentrations, 24 h): continued to increase at concentrations up to 50 μM; sensitivity of cell growth to analogue in the presence of the PAOh1/SMO inhibitor (NCI A549 cells [3]; NCI A549, 96 h, 10 μM analogue with 250 μM MDL 72,527): clear decrease in sensitivity"
"CCNCCCNCCCNCCCNC[C@@H](C)CC [IPENSpm, (S)-N1-(2-methyl-1-butyl)-N^11-ethyl-4,8,diazaundecane]",,,significant induction,none of the analogues examined were found to be oxidized,,
"C=C=CCNCCCCNCC=C=C [MDL 72,527, N^1,N^4-bis(2,3-butadienyl)-1,4-butanediamine]",,,,,,"basal oxidase activity in the presence of inhibitor (PAOh1/SMO; NCI A549 basal activity (4184 without inhibitor), 250 μM MDL 72,527): 4055 pmol/mg per hour; effect on the basal levels of oxidase activity (PAOh1/SMO; NCI A549 lysate, 250 μM MDL 72,527): did not significantly reduce; inhibition of the PAOh1/SMO activity induced by the analogues (PAOh1/SMO; NCI A549 lysate, 250 μM MDL 72,527 in the assay): significantly inhibited; part of the basal level of oxidase activity that is inhibited (PAOh1/SMO; basal (untreated) lung cancer cell lysate): less than 10%; inhibition of the human PAOh1 protein product (human PAOh1): effective in inhibiting; IC50 [1]: ~10 µM; inhibition at 250 µM ([1]; read-out: inhibition of oxidation of spermine): > 95%; effect of the inhibitor alone on growth (NCI A549 cells [3]; NCI A549, 250 μM MDL 72,527): did not adversely affect the growth"
CCNCCCCNCCCCNCCCCNCCCCNC/C=C/CNCCCCNCCCCNCCCCNCCCCNCC [SL-11144],potent inhibitors,,did not induce,none of the analogues examined were found to be oxidized,,"potency relative to MDL 72,527 [1]: 100 times"
NCCCCNCCCN [spermidine],,nanomolar range,,No PAOh1/SMO activity was observed,not significantly active,

# Now from value to molecule, other results behind:
"inhibition of PAOh1/SMO activity, increasing concentrations [1]",Km of PAOh4 (PAOh4),Structure (SMILES),induction of PAOh1/SMO activity (PAOh1/SMO),ability to serve as substrate (oxidation by purified PAOh1/SMO) [1],substrate of the inducible PAOh1/SMO activity (PAOh1/SMO),other results
not found to profoundly inhibit,,"CCNCCCNCCCNCCCNCC1CCCCCC1 [CHENSpm, N^1-ethyl-N^11-(cycloheptyl) methyl-4,8,diazaundecane]",significant induction,none of the analogues examined were found to be oxidized,,inhibition of PAOh1/SMO activity ([1]; at 10 μM): < 20%
,nanomolar range,CC(=O)NCCCNCCCCNCCCN [N^1-acetylspermine],,less efficient,not significantly active,"Km [1, 4]: 51 µM; Vmax of purified PAOh1/SMO [1, 4]: 0.251 μmol/mg protein/min"
potent inhibitors,,CCNCCCCNCCCCNCCCCNCCCCNC/C=C\CNCCCCNCCCCNCCCCNCCCCNCC [SL-11150],did not induce,none of the analogues examined were found to be oxidized,,"potency relative to MDL 72,527 [1]: 100 times"
,nanomolar range,NCCCNCCCCNCCCN [spermine],,efficiently oxidize,only spermine was a substrate,
